Data published in patent US20260200974A1, “PEPTIDE FOR CARTILAGE REGENERATION, AND USES THEREOF” (CAREGEN CO., LTD., priority 2022, published 2026).
Where a SMILES comes first, the peptide text is derived from it. Where no end group is shown, it is not given here.

Assays:
[1] = system: human adipose-derived mesenchymal stem cells (AD-MSC); assay: SRB staining, cell morphology changes; format: cell-based; details: peptide at different concentrations, FIG. 1, FIG. 2
Procedure: Additionally, for SRB staining, after suctioning the medium from the plate, 60 μL of 3.7% formalin was added to the 96-well plate to be stained and fixed for 1 minute. After suctioning 3.7% formalin, 70 μL of SRB staining solution (sulforhodamine B sodium salt (sigma, S9012): 0.2 g in 100 mL DDW) was added and stained. The plate was covered with aluminum foil, blocked from light, and incubated overnight at room temperature. After washing with 100 μL of 1% acetic acid using a multi-pipette, it was dried and observed under a microscope. Meanwhile, in this example, the positive control group (CM) used was one containing dexamethasone (100 nM), […], proline (40 μM), TGFβ1 (10 ng/ml), and 1×ITS.

[2] = system: human adipose-derived mesenchymal stem cells (AD-MSC); assay: CCK-8 assay, cytotoxicity; format: cell-based; details: 7 days, peptide at different concentrations, FIG. 3, FIG. 4
Procedure: Specifically, AD-MSC cells were seeded in 96-well plates at a density of 1.5×10^3 cells/well and cultured in Dulbecco's Modified Eagle's Medium (DMEM) supplemented with 10% FBS for 24 hours. Then, the medium was replaced with DMEM medium supplemented with 5% FBS, and Peptide-1 or Peptide-2 was treated at different concentrations, respectively. Subsequently, the medium was replaced every 3 days and Peptide-1 or Peptide-2 was treated at different concentrations, respectively. To confirm CCK-8 activity, after 7 days, CCK-8 (Dojindo, CCK-8 kit) solution was added at 1/10 volume of the culture medium, and incubated for 2 hours. The culture medium was sampled and CCK-8 activity was confirmed at a wavelength of 450 nm using a microplate reader.

Row | Molecule | change in cell morphology in SRB staining [1] | toxicity toward adipose-derived mesenchymal stem cells (CCK-8 activity) [2]
1 | CC(C)C[C@H](NC(=O)[C@@H](N)CCCNC(=N)N)C(=O)N[C@@H](CCCNC(=N)N)C(=O)N[C@@H](CO)C(=O)O [Peptide-2, RLRS] (H-RLRS-OH) | did not show any change in cell morphology | did not exhibit toxicity
2 | LYRYEEHHE [Peptide-1, LYRYEEHHE] | did not show any change in cell morphology | did not exhibit toxicity
